Values of other authors in US20100143437A1, “IMPLANTABLE ANALGESIC” (priority 2008, published 2010).

Settings: in adults

In the case of `CCCCN1CCCCC1C(=O)Nc1c(C)cccc1C` (stereo not shown) [bupivacaine, 1-butyl-N-(2,6-dimethylphenyl) piperidine-2-carboxamide], the half life is listed as “approximately 210 minutes”.
